Measured values: PubChem BioAssay (NCI)
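Method: 48-hour compound exposure of cells in 96-well plates, five concentrations, linear interpolation of endpoints. Definition used: TGI = concentration required for complete inhibition of growth.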

Assays:
Test in all cases: NCI anticancer screen, dose series, 48 h
NCI-H522 lung = test system: NCI-H522 lung
U251 CNS = test system: U251 CNS
MOLT-4 leukemia = test system: MOLT-4 leukemia
UACC-62 melanoma = test system: UACC-62 melanoma
NCI/ADR-RES ovarian = test system: NCI/ADR-RES ovarian
HS 578T breast = test system: HS 578T breast
DU-145 prostate = test system: DU-145 prostate
UO-31 renal = test system: UO-31 renal
RXF 393 renal = test system: RXF 393 renal
786-0 renal = test system: 786-0 renal
SK-MEL-28 melanoma = test system: SK-MEL-28 melanoma
M14 melanoma = test system: M14 melanoma
HOP-92 NSCLC = test system: HOP-92 NSCLC
HCT-116 colon = test system: HCT-116 colon
COLO 205 colon = test system: COLO 205 colon
SK-OV-3 ovarian = test system: SK-OV-3 ovarian
NCI-H460 lung = test system: NCI-H460 lung
KM12 colon = test system: KM12 colon
SNB-75 CNS = test system: SNB-75 CNS
OVCAR-4 ovarian = test system: OVCAR-4 ovarian
SW-620 colon = test system: SW-620 colon
HL-60(TB) leukemia = test system: HL-60(TB) leukemia
SK-MEL-5 melanoma = test system: SK-MEL-5 melanoma
OVCAR-3 ovarian = test system: OVCAR-3 ovarian
UACC-257 melanoma = test system: UACC-257 melanoma
PC-3 prostate = test system: PC-3 prostate
SF-268 CNS = test system: SF-268 CNS
CCRF-CEM leukemia = test system: CCRF-CEM leukemia
SNB-19 CNS = test system: SNB-19 CNS
OVCAR-8 ovarian = test system: OVCAR-8 ovarian
OVCAR-5 ovarian = test system: OVCAR-5 ovarian
ACHN renal = test system: ACHN renal
SN12C renal = test system: SN12C renal
HT29 colon = test system: HT29 colon
SK-MEL-2 melanoma = test system: SK-MEL-2 melanoma
MALME-3M melanoma = test system: MALME-3M melanoma
K-562 leukemia = test system: K-562 leukemia
MDA-MB-231 breast = test system: MDA-MB-231 breast
HCC-2998 colon = test system: HCC-2998 colon
HOP-62 NSCLC = test system: HOP-62 NSCLC
MDA-N = test system: MDA-N
CAKI-1 renal = test system: CAKI-1 renal
A498 renal = test system: A498 renal
A549 NSCLC = test system: A549 NSCLC
HCT-15 colon = test system: HCT-15 colon
MCF7 breast = test system: MCF7 breast
MDA-MB-435 = test system: MDA-MB-435
SF-295 CNS = test system: SF-295 CNS
NCI-H226 lung = test system: NCI-H226 lung
IGROV1 ovarian = test system: IGROV1 ovarian
T-47D breast = test system: T-47D breast
NCI-H23 lung = test system: NCI-H23 lung
TK-10 renal = test system: TK-10 renal
SF-539 CNS = test system: SF-539 CNS
LOX IMVI melanoma = test system: LOX IMVI melanoma
RPMI-8226 leukemia = test system: RPMI-8226 leukemia
EKVX NSCLC = test system: EKVX NSCLC
SR leukemia = test system: SR leukemia

For N/C(=N/N=C/c1cc(Br)cc(Br)c1O)NO, the TGI (NCI-H522 lung) was 88.6 µM, the TGI (U251 CNS) was > 100 µM and the TGI (MOLT-4 leukemia) was 5.58 µM. The TGI (UACC-62 melanoma) was 7.52 µM, the TGI (NCI/ADR-RES ovarian) was 18.9 µM and the TGI (HS 578T breast) was > 75.3 µM. The TGI (DU-145 prostate) was > 23.8 µM, the TGI (UO-31 renal) was 8.4 µM and the TGI (RXF 393 renal) was 53.4 µM. For the same compound, the TGI (786-0 renal) was > 40.7 µM, the TGI (SK-MEL-28 melanoma) was > 100 µM and the TGI (M14 melanoma) was 12.3 µM. For the same compound, the TGI (HOP-92 NSCLC) was 25.2 µM, the TGI (HCT-116 colon) was 44 µM and the TGI (COLO 205 colon) was 49.8 µM. The TGI (SK-OV-3 ovarian) was > 47.6 µM, the TGI (NCI-H460 lung) was 27.5 µM and the TGI (KM12 colon) was 51.4 µM. The TGI (SNB-75 CNS) was > 28.3 µM, the TGI (OVCAR-4 ovarian) was 71.4 µM and the TGI (SW-620 colon) was > 100 µM. The TGI (HL-60(TB) leukemia) was 2.31 µM, the TGI (SK-MEL-5 melanoma) was 38.5 µM and the TGI (OVCAR-3 ovarian) was 13.1 µM. The TGI (UACC-257 melanoma) was 99.5 µM, the TGI (PC-3 prostate) was > 59 µM and the TGI (SF-268 CNS) was 8.75 µM. The TGI (CCRF-CEM leukemia) was 3.26 µM, the TGI (SNB-19 CNS) was > 80.7 µM and the TGI (OVCAR-8 ovarian) was > 25.4 µM. For the same compound, the TGI (OVCAR-5 ovarian) was > 100 µM, the TGI (ACHN renal) was 9.66 µM and the TGI (SN12C renal) was 8.8 µM. The TGI (HT29 colon) was > 100 µM, the TGI (SK-MEL-2 melanoma) was 82.9 µM and the TGI (MALME-3M melanoma) was 17.1 µM. The TGI (K-562 leukemia) was 21.5 µM, the TGI (MDA-MB-231 breast) was 40.6 µM and the TGI (HCC-2998 colon) was > 53.8 µM. For the same compound, the TGI (HOP-62 NSCLC) was 25.9 µM, the TGI (MDA-N) was > 100 µM and the TGI (CAKI-1 renal) was 2.54 µM. For the same compound, the TGI (A498 renal) was 16 µM, the TGI (A549 NSCLC) was 53.7 µM and the TGI (HCT-15 colon) was > 46.6 µM. For the same compound, the TGI (MCF7 breast) was > 89.3 µM, the TGI (MDA-MB-435) was > 81.2 µM and the TGI (SF-295 CNS) was > 45.9 µM. For the same compound, the TGI (NCI-H226 lung) was 6.54 µM, the TGI (IGROV1 ovarian) was 4.66 µM and the TGI (T-47D breast) was 11.2 µM. For the same compound, the TGI (NCI-H23 lung) was > 80.2 µM, the TGI (TK-10 renal) was > 45.6 µM and the TGI (SF-539 CNS) was > 31.9 µM. For the same compound, the TGI (LOX IMVI melanoma) was 19.8 µM, the TGI (RPMI-8226 leukemia) was 15.7 µM and the TGI (EKVX NSCLC) was 75.1 µM.

For CC(NNC(=S)N1CCCCCC1)c1cccnn1 (stereo not given), the TGI (U251 CNS) was > 80.4 µM, the TGI (MOLT-4 leukemia) was > 100 µM and the TGI (UACC-62 melanoma) was 1.14 µM. The TGI (NCI/ADR-RES ovarian) was > 88.8 µM, the TGI (HS 578T breast) was > 100 µM and the TGI (DU-145 prostate) was > 100 µM. The TGI (UO-31 renal) was 2.67 µM, the TGI (RXF 393 renal) was 0.57 µM and the TGI (786-0 renal) was > 100 µM. The TGI (SK-MEL-28 melanoma) was > 34.5 µM, the TGI (M14 melanoma) was 4.94 µM and the TGI (COLO 205 colon) was > 100 µM. For the same compound, the TGI (SK-OV-3 ovarian) was 20.7 µM, the TGI (NCI-H460 lung) was > 21.6 µM and the TGI (KM12 colon) was > 100 µM. For the same compound, the TGI (SNB-75 CNS) was > 43.4 µM, the TGI (SW-620 colon) was > 100 µM and the TGI (HL-60(TB) leukemia) was > 32.2 µM. For the same compound, the TGI (SK-MEL-5 melanoma) was 2.31 µM, the TGI (OVCAR-3 ovarian) was > 100 µM and the TGI (UACC-257 melanoma) was 3.77 µM. For the same compound, the TGI (PC-3 prostate) was > 100 µM, the TGI (CCRF-CEM leukemia) was 1.1 µM and the TGI (OVCAR-8 ovarian) was > 100 µM. The TGI (SR leukemia) was > 100 µM, the TGI (ACHN renal) was 3.09 µM and the TGI (SN12C renal) was > 100 µM. The TGI (HT29 colon) was > 100 µM, the TGI (SK-MEL-2 melanoma) was > 78.8 µM and the TGI (MALME-3M melanoma) was > 100 µM. The TGI (K-562 leukemia) was > 58.7 µM, the TGI (MDA-MB-231 breast) was > 100 µM and the TGI (HCC-2998 colon) was > 100 µM. For the same compound, the TGI (HOP-62 NSCLC) was > 32.5 µM, the TGI (MDA-N) was > 100 µM and the TGI (CAKI-1 renal) was > 100 µM. The TGI (A498 renal) was 9.82 µM, the TGI (HCT-15 colon) was > 100 µM and the TGI (MCF7 breast) was 0.901 µM. For the same compound, the TGI (MDA-MB-435) was > 56.2 µM, the TGI (SF-295 CNS) was > 39.6 µM and the TGI (NCI-H226 lung) was > 43.4 µM. The TGI (T-47D breast) was > 35.1 µM, the TGI (NCI-H23 lung) was > 100 µM and the TGI (TK-10 renal) was > 33.3 µM. For the same compound, the TGI (SF-539 CNS) was 0.939 µM, the TGI (LOX IMVI melanoma) was > 100 µM and the TGI (RPMI-8226 leukemia) was > 100 µM.

For CC1CN=C(N(C(=O)Nc2ccccc2)c2ccccc2)S1 (stereo not given), the TGI (U251 CNS) was > 100 µM, the TGI (MOLT-4 leukemia) was 61.6 µM and the TGI (NCI/ADR-RES ovarian) was 71.5 µM. For the same compound, the TGI (HS 578T breast) was > 100 µM, the TGI (DU-145 prostate) was > 100 µM and the TGI (UO-31 renal) was > 100 µM. The TGI (786-0 renal) was > 100 µM, the TGI (SK-MEL-28 melanoma) was 31.9 µM and the TGI (HCT-116 colon) was > 100 µM. For the same compound, the TGI (COLO 205 colon) was > 100 µM, the TGI (SK-OV-3 ovarian) was > 100 µM and the TGI (NCI-H460 lung) was > 100 µM. For the same compound, the TGI (KM12 colon) was > 100 µM, the TGI (SNB-75 CNS) was > 100 µM and the TGI (OVCAR-4 ovarian) was > 100 µM. For the same compound, the TGI (SW-620 colon) was > 100 µM, the TGI (HL-60(TB) leukemia) was 66.4 µM and the TGI (SK-MEL-5 melanoma) was 31.8 µM. For the same compound, the TGI (OVCAR-3 ovarian) was 82.2 µM, the TGI (UACC-257 melanoma) was 64.7 µM and the TGI (PC-3 prostate) was > 100 µM. For the same compound, the TGI (SF-268 CNS) was > 100 µM, the TGI (CCRF-CEM leukemia) was 64 µM and the TGI (SNB-19 CNS) was > 100 µM. The TGI (OVCAR-8 ovarian) was > 100 µM, the TGI (SR leukemia) was 81.5 µM and the TGI (OVCAR-5 ovarian) was > 100 µM. For the same compound, the TGI (ACHN renal) was > 100 µM, the TGI (SN12C renal) was 62.9 µM and the TGI (HT29 colon) was 36.6 µM. For the same compound, the TGI (SK-MEL-2 melanoma) was 40.5 µM, the TGI (MALME-3M melanoma) was 58.8 µM and the TGI (K-562 leukemia) was > 100 µM. The TGI (MDA-MB-231 breast) was > 100 µM, the TGI (HCC-2998 colon) was > 100 µM and the TGI (HOP-62 NSCLC) was > 100 µM. For the same compound, the TGI (MDA-N) was 48.2 µM, the TGI (CAKI-1 renal) was > 100 µM and the TGI (A498 renal) was 51.2 µM. The TGI (A549 NSCLC) was > 100 µM, the TGI (HCT-15 colon) was > 100 µM and the TGI (MCF7 breast) was 49.7 µM. For the same compound, the TGI (SF-295 CNS) was > 100 µM, the TGI (IGROV1 ovarian) was > 100 µM and the TGI (T-47D breast) was > 100 µM. The TGI (NCI-H23 lung) was > 100 µM, the TGI (TK-10 renal) was 94.2 µM and the TGI (LOX IMVI melanoma) was 37.4 µM. For the same compound, the TGI (RPMI-8226 leukemia) was 67.9 µM and the TGI (EKVX NSCLC) was > 100 µM.
